The values that follow come from PubChem BioAssay AID1985 (Southern Research Specialized Biocontainment Screening …, 2009).

pIC50: −log10 of the molar value.

The subject of the experiment is S. Typhi PhoP-promoter GFP reporter, fluorescence, 4 h. Nature of the experiment: modified counter assay using GFP fluorescence, PhoP regulon inhibitor project, dose response (AID 1985).

On to `C#CCOCCOCCOCCNc1nc(N2CCN(C(=O)[C@H]([C@@H](C)CC)n3cc([C@@H](N)Cc4ccc(O)cc4)nn3)CC2)nc(N2CCN(C(=O)[C@H](Cc3cc4ccccc4[nH]3)n3cc([C@@H](N)CC(C)C)nn3)CC2)n1`, for which the pIC50 is 3.83.

For the molecule `CC(C)C1N=C(c2ccc3c(c2)OCO3)CC(c2ccccc2O)N1` (stereo unspecified), the pIC50 was 3.92. Turning to `CC1(C)N=C(N)N=C(N)N1c1ccc(Oc2ccc(Cl)cc2)c(Cl)c1`, the pIC50 is 4.37. The value for `O=C(CC(=O)c1ccccc1O)c1cccc(F)c1` was 4.42. In the case of `NC1=NC[C@H](Cc2ccc(O)cc2)N1CCCCC1CCCCC1`, the negative-log IC50 (pIC50) is 4.59. `COc1cc(C(=O)N/N=C/c2ccc(OC(=O)c3cccc(C)c3)c(OC)c2)ccc1O`: the pIC50 was 4.68. With `Oc1ccc(C[C@H]2CNCCN2CCCCC2CCCCC2)cc1` the figure was 4.09; with `O=C(Cc1ccc([N+](=O)[O-])cc1)N/N=C/c1ccc([N+](=O)[O-])o1`, 4.88; with `O=c1[nH]c2ccccc2n2c(=S)[nH]nc12`, 4.16.

Turning to `CCN(CC)C(=S)SSC(=S)N(CC)CC`, the negative-log IC50 (pIC50) was 4.66. With `Cc1cccc2sc(N(CCCN(C)C)C(=O)COc3ccc(Cl)cc3)nc12` the figure was 4.10; with `Oc1ccccc1Nc1nc(NCc2ccco2)c2ccccc2n1`, 3.86; with `CCCCCCCCCCOC(=O)Cn1c(COc2ccccc2C)[n+](C)c2ccccc21`, 4.67. The value for `O=C(c1ccc([N+](=O)[O-])o1)N1CCOCC1` was 4.61.

With `CCOC(=O)C1Nc2c(F)cc(C)cc2C2c3ccccc3CC12` (stereo unspecified), the pIC50 was 3.87. For the molecule `OCCN1CCN(C2CCC(c3ccc(F)cc3)c3ccc(F)cc32)CC1` (stereo unspecified), the negative logarithm of the IC50 (pIC50) was 4.17. With `CC(=O)NC(c1cccc([N+](=O)[O-])c1)c1ccc2cccnc2c1O` (stereo unspecified) the figure was 4.01; with `Cc1c(CCOC(=O)C2C3CC4CC(C3)CC2C4)sc[n+]1CC(=O)c1ccc(Br)cc1` (stereo unspecified), 4.25. The value for `O=C(/C=C/c1ccccc1)c1cc(Br)ccc(=O)c1O` was 4.29. Consider `Cc1cc(OCCCCCN2CCCC2)ccc1Cl`, for which the pIC50 is 3.95. The value for `Nc1nonc1C(=O)NCCN=Cc1cc(Cc2ccccc2)cc(Br)c1O` was 4.08.

Regarding `COc1ccc(N2CC(C(=O)N/N=C/c3cc([N+](=O)[O-])ccc3O)CC2=O)cc1` (stereo unspecified), the pIC50 is 4.09. On to `C#CCOCCOCCOCCNc1nc(N2CCN(C(=O)[C@H](Cc3cc4ccccc4[nH]3)n3cc([C@@H](N)C(C)CC)nn3)CC2)nc(N2CCN(C(=O)[C@H](Cc3cc4ccccc4[nH]3)n3cc([C@@H](N)CC(C)C)nn3)CC2)n1` (stereo partly specified), for which the pIC50 is 4.26. The value for `O=C(CNCCC1=CCCCC1)Nc1ccc(N2CCCCCC2)cc1` was 4.27; that for `N=C(N)c1ccc(/C=C/c2ccc(C(=N)N)cc2O)cc1` was 4.79; that for `Oc1cccc2ccc(Nc3ccccn3)nc12` was 4.94.

As to `CCOc1cccc(CNCCc2c(C)[nH]c3ccc(OC(F)(F)F)cc23)c1O`, the pIC50 is 4.12.

As for `CCc1ccc2c(c1)C1(NN=C(c3ccc(C)cc3)S1)C(=O)N2` (stereo unspecified), the pIC50 is 4.61. In the case of `C=CCNc1ncnc2c1[nH]c1ccc(Cl)cc12`, the negative logarithm of the IC50 (pIC50) is 4.31.

On to `CCOc1ccc(/C=N/NC(=O)c2[nH]ncc2Br)c(O)c1`, for which the negative-log IC50 (pIC50) was 4.18. The value for `O=[N+]([O-])/C=C/c1cc2ccccc2[nH]1` was 4.19; that for `CCOC(=O)N1CCC(=NNc2ccnc3cc(Cl)ccc23)CC1` was 4.21. With `Cc1cc(C)n(-c2nc(SCCN(C)C)c3c4c(sc3n2)CCCC4)n1` the figure was 4.10; with `[O-][n+]1c2ccccc2cc2ccccc21`, 4.06.

As for `O=[N+]([O-])c1cc([N+](=O)[O-])c2cccnc2c1Oc1ccccc1O`, the negative logarithm of the IC50 (pIC50) is 4.06.

Take `O=C(N/N=C/c1cc([N+](=O)[O-])ccc1O)C(O)(c1ccccc1)c1ccccc1`: the pIC50 was 4.22. Take `Cc1ccc(-n2c(-c3ccc(Br)cc3)c[n+]3c2CCc2ccc4cccnc4c2-3)cc1`: the pIC50 was 4.01. The value for `O=C(Nc1c(Cl)ccc2nsnc12)c1ccc([N+](=O)[O-])o1` was 4.25; that for `COc1c(N2CCN(C(=S)NC3CC4CCC3C4)C(C)C2)c(F)cc2c(=O)c(C(=O)O)cn(C3CC3)c12` (stereo unspecified) was 5.95. With `Cc1nonc1C(=O)N/N=C/c1ccc(O)cc1O` the figure was 4.53. With `C=CCNc1ncnc2c1[nH]c1ccc(C)cc12` the figure was 4.25; with `COc1ccc(C(=O)CCN2CCc3cc(OC)c(OC)cc3C2)cc1`, 3.91; with `O=C(Nc1cccnc1)c1cc(Br)c(Br)s1`, 3.87.

As to `CCCCCCCCCn1c2c(c(=N)c3c1CCC3)CCC2`, the pIC50 is 4.44. The value for `COc1ccccc1CNCCc1ccc(F)cc1` was 4.44. On to `CN1CCN(c2ccc(NC(=O)c3ccc(-c4ccc(Br)cc4)o3)cc2)CC1`, for which the pIC50 is 4.08. With `N/C(=N\OS(=O)(=O)c1ccc(Cl)cc1)c1cccnc1` the figure was 4.04; with `O=C1NCCCC1C(=O)N/N=C/c1cc([N+](=O)[O-])ccc1O` (stereo unspecified), 3.94; with `CC1=NN(c2nc3ccccc3[nH]2)C(=O)C1Cc1ccccc1` (stereo unspecified), 4.44. On to `C#CCOCCOCCOCCNc1nc(N2CCN(C(=O)CCCCCCCCCCNC(=O)[C@H](CCCCN)n3cc(CCO)nn3)CC2)nc(N2CCN(C(=O)CCCCCCCCCCNC(=O)[C@H](CCCCN)n3cc(C[C@@H](C)CC)nn3)CC2)n1`, for which the negative logarithm of the IC50 (pIC50) is 4.42. With `Cn1c(SCC(=O)N/N=C/c2ccc([N+](=O)[O-])s2)nnc1-c1ccc(Cl)cc1` the figure was 4.41.

As to `O=C(N/N=C/c1cc(Br)cc(Br)c1O)c1ccncc1`, the negative-log IC50 (pIC50) is 4.46. With `CCCCn1c(NS(=O)(=O)c2ccccc2)c(S(=O)(=O)c2ccc(C)cc2)c2nc3ccccc3nc21` the figure was 3.94; with `CN1CCN(c2nc3cc(C(F)(F)F)ccc3n3cccc23)CC1`, 3.99. The value for `COc1ccc(Nc2ccnc3ccccc23)cc1` was 4.07; that for `Cc1ccc(OCC(=O)N/N=C/c2ccc([N+](=O)[O-])o2)cc1` was 4.54; that for `C/C(=N\N=C(N)N)c1ccc(Cl)c(Cl)c1` was 4.29. As to `COc1cccc(NC2=NC3(CCCCC3)N=C(N)N2)c1`, the pIC50 is 3.83. Turning to `CCCCOc1ccc(C(=O)NNC(=S)NC(=O)CC)cc1`, the pIC50 is 4.41. `Nc1[nH]ncc1-c1ccccc1`: the pIC50 is 4.50.

With `CCc1ccc(NC(=O)Nc2ccncc2)cc1`, the negative logarithm of the IC50 (pIC50) is 4.29. For `c1ccc2c(c1)CSc1sccc1C2=C1CCNCC1`, the pIC50 was 3.98. The value for `Cc1[nH]cnc1C(=O)N/N=C/c1ccc([N+](=O)[O-])s1` was 4.69. The value for `O=C(N/N=C/c1cccs1)c1ccc2nc[nH]c2c1` was 3.87; that for `N#C/C(=C(/O)c1ccco1)c1nc2ccccc2s1` was 4.26; that for `Oc1c(Br)cc(Br)cc1C=NCc1ccc(F)cc1` was 4.26. The value for `COc1ccc(NC2=NC3(CCCCC3)N=C(N)N2)cc1` was 3.85; that for `CC(C(=O)c1ccc(-c2ccccc2)cc1)[n+]1cccc(NC(=O)c2ccccc2)c1` (stereo unspecified) was 4.44.

`O=c1[nH][nH]c(-c2ccccc2O)c1C(C[N+](=O)[O-])c1ccc(Br)cc1` (stereo unspecified): the pIC50 was 4.14. Consider `CC12CN3CC(C)(CN(C1)C3c1ccc(Br)cc1O)C2` (stereo unspecified), for which the pIC50 is 3.88.

For the molecule `COc1cccc2c(=O)c(C(=O)O)c[nH]c12`, the negative-log IC50 (pIC50) was 3.98. The value for `Cc1cc(C2N=C(N)Nc3nc4ccccc4n32)c(C)n1-c1ccccc1Cl` (stereo unspecified) was 4.05; that for `Clc1c(OCCCn2ccnc2)ccc2ccccc12` was 3.83; that for `CN1CCN(C2Cc3cc(F)ccc3Sc3ccc(Cl)cc32)CC1` (stereo unspecified) was 4.13. The value for `O=C(N/N=C\c1ccc(Cl)s1)c1cccs1` was 4.48; that for `O=C(N/N=C/c1ccc([N+](=O)[O-])o1)c1ccc(O)cc1` was 4.74; that for `COc1cc2c(cc1OC)[C@H](Cc1ccc(O)cc1)NCC2` was 4.06. With `CN1CCN(C2=Cc3ccccc3Sc3cc(F)ccc32)CC1` the figure was 3.94; with `CN(C)CCCn1c(SCC(=O)N2c3ccccc3Sc3ccccc32)nc2ccccc2c1=O`, 3.84. On to `O=C(O)/C(=C\C(=O)c1ccccc1)Nc1ccccc1`, for which the pIC50 is 4.69.

`CC(/C=N/Nc1nc2ccccc2[nH]1)=C\c1ccccc1`: the negative logarithm of the IC50 (pIC50) was 4.14. The value for `O=C(CCN1CCOCC1)N/N=C/c1cc(Br)cc(Br)c1O` was 4.51; that for `C#CCOCCOCCOCCNc1nc(N2CCN(C(=O)CCCCCCCCCCNC(=O)[C@H]([C@@H](C)CC)n3cc(CCCCN=C(N)N)nn3)CC2)nc(N2CCN(C(=O)CCCCCCCCCCNC(=O)[C@H](CO)n3cc(CCCCCN)nn3)CC2)n1` was 4.48; that for `CN(C)c1ccc(/C=C/c2ccc3ccccc3[n+]2C)cc1` was 4.71. Take `CCOc1cc(C(c2c(C)[nH][nH]c2=O)c2c(C)[nH][nH]c2=O)cc([N+](=O)[O-])c1O`: the negative logarithm of the IC50 (pIC50) was 4.12.

`Cc1cc(/C=C\c2ccc3cc(N(C)C)ccc3[n+]2C)c(C)n1-c1ccccc1`: the pIC50 is 4.49. The value for `CCc1ccc(-c2nn(-c3ccccc3)cc2CSC(=N)N)cc1` was 4.47; that for `C=CC1=C(C(=O)O)N2C(=O)[C@@H](NC(=O)/C(=N\O)c3csc(N)n3)[C@H]2SC1` (stereo in doubt) was 4.46; that for `OCCNc1nc(Nc2ccc(Br)cc2)nc2ccccc12` was 4.72. With `CC[C@H]1OC(=O)[C@H](C)[C@@H](O[C@H]2C[C@@](C)(OC)[C@@H](O)[C@H](C)O2)[C@H](C)[C@@H](O[C@@H]2O[C@H](C)C[C@H](N(C)C)[C@H]2O)[C@](C)(O)C[C@@H](C)CN(C)[C@H](C)[C@@H](O)[C@]1(C)O` the figure was 5.63; with `O=C1OCCN1/N=C/c1ccc([N+](=O)[O-])o1`, 4.87; with `CC(C(=O)NC1C=CS(=O)(=O)C1)N1C(=O)/C(=C/c2cccc(Cl)c2)SC1=S` (stereo unspecified), 4.47. `O=C(Oc1c(Cl)cc(Cl)c2cccnc12)c1ccco1`: the pIC50 is 4.93. The value for `O=c1[nH]c(=S)ccn1C1OC(CO)C(O)C1O` (stereo unspecified) was 5.76. The value for `Oc1ccc(/C=N/Nc2nccnc2Cl)c(O)c1` was 4.18.

Turning to `Cn1c(N/N=C/c2c[nH]c3ccccc23)nc2ccccc21`, the pIC50 is 3.95.
